Among the data in the Kinase Knowledgebase extract (Sharma et al. 2016) are IC50 and Kd values, retold here.

pIC50, pKd: −log10 of the molar value.

The target of experiment [1] is EGFR (human) (UniProt P00533).
Experiment [2] addresses EGFR (human) (UniProt P00533). The source holds these as a separate data set.
The target of experiment [3] is EGFR (human) (UniProt P00533). The source holds these as a separate data set.
The target in experiment [4] is EGFR (human) (UniProt P00533). Particulars: a431.
Experiment [5] deals with PIK3CB (Human) (UniProt P42338). Put plainly: Cell-Based Assay.
The target in another experiment is PIK3CA (human) (UniProt P42336). Kind of experiment: Inhibition of PIK3CA Kinase Activity.
Experiment [6] has as its target PIK3CB (Human) (UniProt P42338). Put plainly: Inhibition of PIK3CB Kinase Activity.
The target in experiment [7] is PIK3CG (human) (UniProt P48736). Put plainly: Inhibition of PIK3CG Kinase Activity.
In experiment [8] the target is PIK3CD (Human) (UniProt O00329). Put plainly: Inhibition of PIK3CD Kinase Activity.
Another experiment concerns the target EGFR (UniProt P00533).
A further experiment addresses MAPK14 (UniProt Q16539). Kind of experiment: Enzyme Assay.
The target in experiment [9] is EGFR (human) (UniProt P00533). The source holds these as a separate data set.
The target of experiment [10] is PIK3CD (Human) (UniProt O00329). Kind of experiment: Enzyme Assay.
For experiment [11], the target named is PIK3CG (human) (UniProt P48736). Kind of experiment: Enzyme Assay.
For experiment [12], the target named is PIK3CB (Human) (UniProt P42338). Put plainly: Enzyme Assay.

Chain of EGFR (human) (P00533 whole entry, looked up): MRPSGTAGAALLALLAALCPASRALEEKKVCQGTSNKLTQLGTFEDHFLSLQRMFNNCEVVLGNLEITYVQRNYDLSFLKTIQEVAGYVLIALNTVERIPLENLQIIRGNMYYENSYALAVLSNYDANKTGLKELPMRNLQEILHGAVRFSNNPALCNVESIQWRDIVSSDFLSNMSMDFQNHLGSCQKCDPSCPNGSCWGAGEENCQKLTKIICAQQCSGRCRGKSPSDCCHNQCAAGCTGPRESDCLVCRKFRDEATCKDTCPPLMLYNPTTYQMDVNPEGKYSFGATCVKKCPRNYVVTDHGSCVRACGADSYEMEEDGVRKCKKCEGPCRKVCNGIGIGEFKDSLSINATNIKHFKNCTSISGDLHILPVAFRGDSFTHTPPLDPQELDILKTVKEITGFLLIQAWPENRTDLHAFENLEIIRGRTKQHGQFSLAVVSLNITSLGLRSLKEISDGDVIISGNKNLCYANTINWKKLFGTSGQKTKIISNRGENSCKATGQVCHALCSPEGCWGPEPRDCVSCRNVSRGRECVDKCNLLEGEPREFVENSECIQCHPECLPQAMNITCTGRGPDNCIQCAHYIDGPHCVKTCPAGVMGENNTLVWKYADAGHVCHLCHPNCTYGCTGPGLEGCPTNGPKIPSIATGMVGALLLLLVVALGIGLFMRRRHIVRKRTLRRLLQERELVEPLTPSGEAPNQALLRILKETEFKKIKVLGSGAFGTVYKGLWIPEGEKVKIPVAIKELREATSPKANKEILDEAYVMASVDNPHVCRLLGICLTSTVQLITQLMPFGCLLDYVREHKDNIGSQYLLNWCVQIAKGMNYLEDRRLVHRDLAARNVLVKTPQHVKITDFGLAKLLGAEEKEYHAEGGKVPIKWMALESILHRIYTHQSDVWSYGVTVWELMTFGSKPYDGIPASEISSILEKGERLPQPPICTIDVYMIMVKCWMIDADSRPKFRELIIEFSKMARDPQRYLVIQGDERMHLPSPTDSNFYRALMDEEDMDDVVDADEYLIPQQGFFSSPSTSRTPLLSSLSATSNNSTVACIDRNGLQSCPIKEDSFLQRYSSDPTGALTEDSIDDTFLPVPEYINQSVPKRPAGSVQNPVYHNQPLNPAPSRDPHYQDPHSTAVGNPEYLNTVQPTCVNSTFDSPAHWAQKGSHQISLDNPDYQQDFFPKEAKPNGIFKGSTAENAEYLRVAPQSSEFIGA
Chain of EGFR (P00533 whole entry, looked up): as above
Chain of PIK3CB (Human) (P42338 whole entry, looked up): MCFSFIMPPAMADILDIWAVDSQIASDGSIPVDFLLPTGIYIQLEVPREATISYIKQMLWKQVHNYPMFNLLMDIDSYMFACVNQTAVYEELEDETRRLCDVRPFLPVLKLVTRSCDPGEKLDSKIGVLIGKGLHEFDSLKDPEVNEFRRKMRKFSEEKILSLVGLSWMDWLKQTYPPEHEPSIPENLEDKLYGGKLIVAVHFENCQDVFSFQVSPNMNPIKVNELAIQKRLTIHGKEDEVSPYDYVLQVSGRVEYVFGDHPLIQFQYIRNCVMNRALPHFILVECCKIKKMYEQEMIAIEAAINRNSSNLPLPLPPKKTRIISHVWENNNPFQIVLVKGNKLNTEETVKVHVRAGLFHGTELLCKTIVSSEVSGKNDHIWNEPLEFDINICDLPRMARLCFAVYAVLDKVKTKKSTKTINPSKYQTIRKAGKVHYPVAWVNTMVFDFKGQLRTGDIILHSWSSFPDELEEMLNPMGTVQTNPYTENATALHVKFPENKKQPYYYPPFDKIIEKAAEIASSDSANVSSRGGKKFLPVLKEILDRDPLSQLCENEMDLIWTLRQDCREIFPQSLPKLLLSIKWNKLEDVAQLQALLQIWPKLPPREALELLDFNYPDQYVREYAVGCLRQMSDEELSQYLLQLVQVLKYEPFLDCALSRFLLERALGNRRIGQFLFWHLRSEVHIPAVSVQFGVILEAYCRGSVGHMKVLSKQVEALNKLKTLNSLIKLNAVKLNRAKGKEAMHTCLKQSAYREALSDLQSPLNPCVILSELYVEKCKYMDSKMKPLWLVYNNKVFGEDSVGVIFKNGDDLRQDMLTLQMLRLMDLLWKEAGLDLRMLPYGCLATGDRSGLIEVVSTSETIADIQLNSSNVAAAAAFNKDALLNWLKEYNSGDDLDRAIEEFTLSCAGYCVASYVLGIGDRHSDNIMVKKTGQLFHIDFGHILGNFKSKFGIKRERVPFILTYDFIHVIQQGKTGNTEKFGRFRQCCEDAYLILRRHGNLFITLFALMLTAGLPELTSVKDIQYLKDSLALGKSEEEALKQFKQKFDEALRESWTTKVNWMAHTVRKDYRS
Chain of PIK3CD (Human) (O00329 whole entry, looked up): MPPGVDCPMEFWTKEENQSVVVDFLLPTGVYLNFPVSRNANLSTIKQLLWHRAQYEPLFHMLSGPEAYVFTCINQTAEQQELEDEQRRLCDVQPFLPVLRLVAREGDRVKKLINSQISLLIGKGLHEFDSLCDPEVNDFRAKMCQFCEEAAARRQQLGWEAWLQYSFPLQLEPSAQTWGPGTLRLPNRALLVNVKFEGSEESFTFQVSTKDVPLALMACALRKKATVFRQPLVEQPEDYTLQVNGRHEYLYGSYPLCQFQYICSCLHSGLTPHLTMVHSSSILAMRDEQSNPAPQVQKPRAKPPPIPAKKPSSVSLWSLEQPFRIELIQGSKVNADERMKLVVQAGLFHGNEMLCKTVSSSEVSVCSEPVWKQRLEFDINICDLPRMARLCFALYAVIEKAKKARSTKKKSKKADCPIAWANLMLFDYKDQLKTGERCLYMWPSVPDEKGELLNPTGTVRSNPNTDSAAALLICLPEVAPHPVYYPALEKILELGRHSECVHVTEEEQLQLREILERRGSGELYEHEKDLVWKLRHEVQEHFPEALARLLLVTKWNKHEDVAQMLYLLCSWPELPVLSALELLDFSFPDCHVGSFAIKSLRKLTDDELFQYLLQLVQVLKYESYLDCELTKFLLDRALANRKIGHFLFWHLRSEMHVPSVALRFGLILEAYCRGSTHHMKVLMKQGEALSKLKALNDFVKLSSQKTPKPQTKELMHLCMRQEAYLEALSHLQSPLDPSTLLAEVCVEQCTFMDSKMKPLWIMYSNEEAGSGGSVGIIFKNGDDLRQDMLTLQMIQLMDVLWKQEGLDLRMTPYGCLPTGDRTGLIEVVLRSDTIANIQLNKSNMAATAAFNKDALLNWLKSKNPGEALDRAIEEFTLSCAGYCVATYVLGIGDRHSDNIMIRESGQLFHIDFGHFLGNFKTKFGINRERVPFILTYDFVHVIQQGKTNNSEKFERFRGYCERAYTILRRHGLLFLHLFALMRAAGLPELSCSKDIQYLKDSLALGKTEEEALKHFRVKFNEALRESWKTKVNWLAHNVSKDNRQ
Chain of MAPK14 (Q16539 whole entry, looked up): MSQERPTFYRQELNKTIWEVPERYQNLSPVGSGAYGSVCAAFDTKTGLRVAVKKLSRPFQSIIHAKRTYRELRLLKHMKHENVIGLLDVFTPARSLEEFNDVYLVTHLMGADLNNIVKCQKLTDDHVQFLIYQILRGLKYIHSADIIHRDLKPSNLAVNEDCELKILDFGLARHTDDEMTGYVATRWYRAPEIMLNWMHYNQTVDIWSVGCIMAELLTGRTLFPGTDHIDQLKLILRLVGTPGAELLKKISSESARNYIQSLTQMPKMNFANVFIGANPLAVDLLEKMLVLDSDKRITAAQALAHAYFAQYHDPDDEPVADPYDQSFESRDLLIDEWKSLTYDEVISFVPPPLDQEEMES

The term pIC50 denotes the negative decadic logarithm of the IC50, by convention in mol/L. Read a low pIC50 as a large IC50. `O=[N+]([O-])c1cccc(Nc2ncnc3sc4c(c23)CCCC4)c1` had a negative-log IC50 (pIC50) against EGFR (human) [1] of 8.59.
`Oc1ccc(Nc2ncnc3sc4c(c23)CCCC4)cc1` gave a negative-log IC50 (pIC50) against EGFR (human) [1] of 7.56.
In turn, `O=C(Nc1ccc(CN2CCCCC2)cc1)c1sc2ncnc3c2c1NC(=O)N3c1ccc(Cc2ccccc2)cc1` showed a pIC50 against EGFR (human) [2] of 6.96.
In the case of `CCNc1nc(-c2cccc(OC)c2)c(-c2ccnc(Nc3ccc(OC4CCN(CCS(C)(=O)=O)CC4)c(F)c3)n2)s1`, the pIC50 at EGFR (human) [3] was 6.00 to 7.00.
`C=CC(=O)N1CCCC[C@H]1C(=O)Nc1ccc2ncnc(Nc3ccc(OCc4ccccn4)c(Cl)c3)c2c1`: at EGFR (human) [4], the negative-log IC50 (pIC50) is 6.98.
As for `COCCNc1nc(-c2cccc(OC)c2)c(-c2ccnc(Nc3ccc(N4CCOCC4)c(Cl)c3)n2)s1`, the pIC50 against EGFR (human) [3] is > 7.00.
`CCNc1nc(-c2cccc(Cl)c2)c(-c2ccnc(Nc3ccc(OCCN(C)C)c(Cl)c3)n2)s1`: on EGFR (human) [3], the pIC50 is > 7.00.
`c1ccc(Nc2ncnc3sc4c(c23)CCCC4)cc1` showed a negative logarithm of the IC50 (pIC50) against EGFR (human) [1] of 7.98.
Take `C[C@H](Nc1ncnc(N)c1C#N)c1nc2cccc(Cl)c2nc1-c1ccccc1S(C)(=O)=O`: the pIC50 on PIK3CB (Human) [5] (mda-468) and on PIK3CB (Human) [5] (mda-mb-468) was < 5.00 in each case.
Regarding `CCN(CC)c1ncc2c(n1)-c1sc(NC(=O)N3CCC[C@@]3(Cc3ccccc3)C(N)=O)nc1CC2`, the negative-log IC50 (pIC50) is 7.35 against PIK3CA (human), 6.90 at PIK3CB (Human) [6], 5.80 against PIK3CG (human) [7] and 6.13 against PIK3CD (Human) [8].
In the same order, the values of `C=CCN(/C=C1/C(=O)O[C@H](COC)[C@@]2(C)C1=C(O)C(=O)C1=C2[C@H](OC(C)=O)C[C@]2(C)C(O)CC[C@H]12)CC=C` (stereo partly specified) are 7.85, 7.24, 6.83 and 6.88.
Turning to `CNC(=O)[C@@H]1CN(Cc2cccc3ncnc(Nc4cccc(OC)c4)c23)CC[C@H]1N`, the negative-log IC50 (pIC50) against EGFR is 5.30 to 9.00.
Turning to `Oc1cccc(Nc2ncnc3sc4c(c23)CCCC4)c1`, at EGFR (human) [1], the pIC50 is 8.10.
Regarding `CC(C)(C)OC(=O)NCCCNC(=O)c1sc2ncnc3c2c1NC(=O)N3c1ccc2c(ccn2Cc2cccc(F)c2)c1`, the pIC50 against EGFR (human) [2] was 6.46.
In general, pKd refers to the negative decadic logarithm of the Kd, by convention in mol/L. On MAPK14, `Cc1ccc(-n2nc(C(C)(C)C)cc2NC(=O)Nc2cc(C)c(OCCN3CCOCC3)c3ccccc23)cc1` showed a pKd of 7.85.
Compound `NC1CCN(Cc2cccc3ncnc(Nc4ccc(OCc5cccc(F)c5)c(Cl)c4)c23)CC1` gave a pIC50 at EGFR of 5.30 to 9.00.
Compound `COc1cccc(Nc2ncnc3sc4c(c23)CCCC4)c1` gave a pIC50 against EGFR (human) [1] of 7.47.
Compound `COc1cccc(Nc2ncnc3cccc(CN4CC[C@@H](N)[C@H](O)C4)c23)c1` gave a pIC50 on EGFR of 5.30 to 9.00.
The compound `C=CC(=O)N1CC(C(=O)Nc2ccc3ncnc(Nc4ccc(OCc5ccccn5)c(Cl)c4)c3c2)C1` showed a pIC50 on EGFR (human) [4] of 5.85.
For the compound `C[C@H](Nc1ncnc(N)c1C#N)c1cc2ccc(F)cc2nc1-c1ccccc1S(C)(=O)=O`, on PIK3CB (Human) [5] (mda-468), the pIC50 was < 5.00.
`Nc1ccccc1Nc1ccc2c(c1)OCc1ccccc1C2=O`: the pIC50 at MAPK14 is 6.52.
In the case of `C=CC(=O)N1CCC[C@@H]1C(=O)Nc1ccc2ncnc(Nc3ccc(OCc4ccccn4)c(Cl)c3)c2c1`, on EGFR (human) [4], the pIC50 was 6.25.
Turning to `CC(C)(C)OC(=O)N1CCC(Cc2ccc(NC(=O)c3sc4ncnc5c4c3NC(=O)N5c3ccc4c(ccn4Cc4cccc(F)c4)c3)cc2)CC1`, the pIC50 on EGFR (human) [2] is 6.77.
`C[C@H](Nc1ncnc(N)c1C#N)c1cc2ccc(F)cc2nc1-c1cccc(F)c1` gave a pIC50 at PIK3CB (Human) [5] (mda-468) of 5.42.
On to `Cc1cc(C)c(/C(C(=O)Nc2ccccc2Cl)=C2\C(=O)Nc3ccccc32)[nH]1`, for which the negative logarithm of the IC50 (pIC50) at EGFR (human) [9] was < 4.00.
Compound `C=CC(=O)N1CC[C@H](C(=O)Nc2ccc3ncnc(Nc4ccc(OCc5ccccn5)c(Cl)c4)c3c2)C1` had a pIC50 against EGFR (human) [4] of 6.46.
In the case of `C[C@H](Nc1ncnc2ccc(Cl)nc12)c1nc2c(F)ccc(Cl)c2c(=O)n1N1CCNCC1`, the pIC50 against PIK3CD (Human) [10] was 8.52; at PIK3CG (human) [11] it was 5.51; at PIK3CB (Human) [12], 8.10.
As for `Brc1ccc(Nc2ncnc3sc4c(c23)CCCC4)cc1`, on EGFR (human) [1], the pIC50 is 7.30.
Compound `C=CC(=O)N1CC[C@H]1C(=O)Nc1ccc2ncnc(Nc3ccc(OCc4ccccn4)c(Cl)c3)c2c1` gave a pIC50 against EGFR (human) [4] of 6.66.
Regarding `COc1cccc(Nc2ncnc3cccc(CN4CCC(N)CC4)c23)c1`, the negative-log IC50 (pIC50) against EGFR is 5.30 to 9.00.
In the case of `FC(F)(F)c1cccc(Nc2ncnc3sc4c(c23)CCCC4)c1`, on EGFR (human) [1], the pIC50 was 7.45.
The compound `C#Cc1cccc(Nc2ncnc3cccc(CN4CC[C@@H](N)[C@H](O)C4)c23)c1` showed a pIC50 against EGFR of 5.30 to 9.00.
As for `CC[C@H](Nc1ncnc(N)c1-c1nnc(C)o1)c1cc2cccc(Cl)c2c(=O)n1-c1ccccc1`, at PIK3CB (Human) [12], the pIC50 is 6.44.
Regarding `Cc1cc(C)c(/C(C(=O)Nc2cccc(F)c2)=C2\C(=O)Nc3ccccc32)[nH]1`, at EGFR (human) [9], the negative-log IC50 (pIC50) was < 4.00.
As to `Fc1ccc(-c2ncn(CCCN3CCOCC3)c2-c2ccccn2)cc1`, the pIC50 at MAPK14 is 4.19.
On to `N[C@@H]1CCN(Cc2cccc3ncnc(Nc4ccc5c(cnn5Cc5cccc(F)c5)c4)c23)C[C@H]1O`, for which the pIC50 at EGFR is 5.30 to 9.00.
At EGFR (human) [4], `C=CC(=O)N1CCC[C@H](C(=O)Nc2ccc3ncnc(Nc4ccc(OCc5ccccn5)c(Cl)c4)c3c2)C1` gave a pIC50 of 6.54.
